Results from patent US20070265231A1, “Hydrazide Compounds for Combating Animal Pests” (priority 2005, published 2007).

System: Bean Aphid (Aphis fabae)
Test: Bean aphid mortality test, nasturtium plants dipped in test solution
Format: in vivo
Settings: 300 ppm, after 3 days
Source text: I.4 Bean Aphid (Aphis fabae)
Nasturtium plants grown in Metro mix in the 1st leaf-pair stage (variety ‘Mixed Jewel’) were infested with approximately 2-30 laboratory-reared aphids by placing infested cut plants on top of the test plants. The cut plants were removed after 24 hr. Each plant was dipped into the test solution to provide complete coverage of the foliage, stem, protruding seed surface and surrounding cube surface and allowed to dry in the fume hood. The treated plants were kept at about 25° C. with continuous fluorescent light. Aphid mortality is determined after 3 days.

Question: `CC(=Cc1cccc(F)c1)CNN(C)C(=O)c1ccccc1` [A93] was tested. Which “mortality in comparison with untreated controls” value (“mortality in comparison” below) did it give?
Answer: The value was 75%.

Question: Which “mortality in comparison” value does the source give for `CC(=Cc1ccccc1)CNNC(=O)c1ccc(F)cc1F` [A141] here?
Answer: The value was 75%.

Question: For `CC(=Cc1ccccc1F)CNNC(=O)c1ccc(F)cc1F` [A305], which “mortality in comparison” value is on record?
Answer: Its value is 75%.

Question: With `O=C(NNCC=Cc1ccc(Cl)s1)c1ccccn1` [E1] as the compound, how does the “mortality in comparison” value read?
Answer: Its value is 75%.

Question: How did the “mortality in comparison” value turn out when `CC(C)C(=Cc1ccco1)CNNC(=O)c1ccccn1` [E3] was run?
Answer: Its value is 75%.

System: Orchid thrips (dichromothrips corbetti)
Test: Orchid thrips mortality test, floral-immersion technique
Format: in vivo
Settings: 96 h, orchid petals dipped, adult thrips, after 4 days, read-out: mortality in comparison with untreated controls
Experimental: I.3 Orchid thrips (dichromothrips corbetti)
Dichromothrips corbetti adults used for bioassay were obtained from a colony maintained continuously under laboratory conditions. For testing purposes, the test compound was diluted to a concentration of 500 ppm (wt compound: vol diluent) in a 1:1 mixture of acetone:water, plus 0.01% Kinetic® surfactant.
Thrips potency of each compound was evaluated by using a floral-immersion technique. Plastic petri dishes were used as test arenas. All petals of individual, intact orchid flowers were dipped into treatment solution for approximately 3 seconds and allowed to dry for 2 hours. Treated flowers were placed into individual petri dishes along with 10-15 adult thrips. The petri dishes were then covered with lids. All test arenas were held under continuous light and a temperature of about 28° C. for duration of the assay. After 4 days, the numbers of live thrips were counted on each flower, and along inner walls of each petri dish. The level of thrips mortality was extrapolated from pre-treatment thrips numbers.

Question: How did the mortality at 300 ppm turn out when `CC(=Cc1cccc(F)c1)CNNC(=O)c1ccccc1F` [A1, 2-Fluorobenzoic acid N′-[3-(3-fluorophenyl)-2-methyl-allyl]hydrazide] was run?
Answer: Its mortality at 300 ppm is over 75%.
